Source: US11452717B2, “Small molecule activators of nicotinamide phosphoribosyltransferase (NAMPT) and uses thereof” (Sanford Burnham Prebys Medical Discovery Institute, priority 2017, dated 2022)
“And” between values parts separate entries of the source, which are not always exact repeats. Equal entries are not always repeated.

Target: NAMPT enzyme (Homo sapiens (Human), UniProt P43490)
Assay: Enzyme Assay and NMN Detection (NAMPT reaction, fluorescence detection of NMN)
Assay type: biochemical
Settings: Table B-2; NAMPT activation, NMN formation
Experimental: NAMPT reaction was performed in 50 mM HEPES, pH 7.5, containing 5 mM MgCl2, 0.1% Prionex, 0.005% Tween 20, and 1 mM TCEP at room temperature in Greiner 384-well black polypropylene plates. The concentration of substrates and enzymes in the final assay were as follows: ATP (120 uM), nicotinamide (5 uM), phosphoribosylpyrophosphate (6.25 uM), NAMPT enzyme (16 nM), pyrophosphatase (0.04 U/ml) in the final reaction volume 6 uL. Following 2 h incubation the reaction was stopped by addition 2.5 ul 20% acetophenone in dimethyl sulfoxide (DMSO) and 2.5 ul 2 MKOH. Plates were centrifuges and added with 10.5 ul 88% formic acid. The fluorescence (ex380/em460) was measured following another short incubation and 30 min incubation. The increased concentration of NMN was determined from a calibration curve obtained at the time of experiment.

NAMPT enzyme, sequence (P43490 whole entry, species assumed): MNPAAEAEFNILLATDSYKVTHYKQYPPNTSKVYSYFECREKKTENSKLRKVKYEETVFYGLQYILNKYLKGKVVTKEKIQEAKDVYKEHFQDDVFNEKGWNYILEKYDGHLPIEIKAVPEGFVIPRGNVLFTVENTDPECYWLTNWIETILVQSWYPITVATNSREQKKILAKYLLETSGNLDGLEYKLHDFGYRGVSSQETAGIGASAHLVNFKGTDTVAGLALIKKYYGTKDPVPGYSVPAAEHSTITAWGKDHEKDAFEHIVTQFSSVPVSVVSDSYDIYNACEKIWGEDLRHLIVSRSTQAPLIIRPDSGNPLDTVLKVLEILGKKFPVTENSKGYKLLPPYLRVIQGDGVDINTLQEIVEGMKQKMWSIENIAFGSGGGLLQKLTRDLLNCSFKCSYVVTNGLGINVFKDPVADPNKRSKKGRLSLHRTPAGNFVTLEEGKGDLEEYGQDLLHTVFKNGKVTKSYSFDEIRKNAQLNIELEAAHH

| SMILES | EC50 [nM] |
| --- | --- |
| O=C(NCc1ccncc1)Nc1ccc(NS(=O)(=O)Cc2ccccc2Cl)cc1 [1-(2-chlorophenyl)-N-(4-(3-(pyridin-4-ylmethyl)ureido)phenyl)methanesulfonamide] | < 100 |
| O=C(NCc1ccncc1)Nc1cccc(S(=O)(=O)N2CCOCC2)c1 [1-(3-(morpholinosulfonyl)phenyl)-3-(pyridin-4-ylmethyl)urea] | > 20000 |
| O=C(NCc1ccncc1)Nc1ccc(NS(=O)(=O)Cc2cccc(Cl)c2)cc1 [1-(3-chlorophenyl)-N-(4-(3-(pyridin-4-ylmethyl)ureido)phenyl)methanesulfonamide] | < 100 |
| CN1CCN(C(=O)c2ccc(NC(=O)NCc3ccncc3)cc2)CC1 [1-(4-(4-Methylpiperazine-1-carbonyl)phenyl)-3-(pyridin-4-ylmethyl)urea] | 5000 to 20000 |
| O=C(NCc1ccncc1)Nc1ccc(C(=O)N2CC3CCC(C2)O3)cc1 [1-(4-(8-Oxa-3-azabicyclo[3.2.1]octane-3-carbonyl)phenyl)-3-(pyridin-4-ylmethyl)urea] | 100 to 2000 |

Same assay, conditions: Table B-4; NAMPT activation, NMN formation

| SMILES | EC50 |
| --- | --- |
| O=C(NCc1cn[nH]c1)Nc1ccc(S(=O)(=O)c2ccccc2OC(F)(F)F)cc1 [1-(1H-Pyrazol-4-ylmethyl)-3-[4-(2-trifluoromethoxy-benzenesulfonyl)-phenyl]-urea] | < 100 nM |
| O=C(NCc1cn[nH]c1)Nc1ccc(S(=O)(=O)c2ccccc2C(F)(F)F)cc1 [1-(1H-Pyrazol-4-ylmethyl)-3-[4-(2-trifluoromethyl-benzenesulfonyl)-phenyl]-urea] | 100 to 2000 nM |
| O=C(NCc1cn[nH]c1)Nc1ccc(S(=O)(=O)c2cccc(OC(F)(F)F)c2)cc1 [1-(1H-Pyrazol-4-ylmethyl)-3-[4-(3-trifluoromethoxy-benzenesulfonyl)-phenyl]-urea] | < 100 nM |
| Cc1cccc(-c2csc(Nc3ccc(NC(=O)NCc4cn[nH]c4)cc3)n2)c1 [1-(1H-Pyrazol-4-ylmethyl)-3-[4-(4-m-tolyl-thiazol-2-ylamino)-phenyl]-urea] | 100 to 2000 nM |
| Cc1ccccc1-c1csc(Nc2ccc(NC(=O)NCc3cn[nH]c3)cc2)n1 [1-(1H-Pyrazol-4-ylmethyl)-3-[4-(4-o-tolyl-thiazol-2-ylamino)-phenyl]-urea] | 100 to 2000 nM |
| O=C(NCc1cn[nH]c1)Nc1ccc(S(=O)(=O)c2ccc(OC(F)(F)F)cc2)cc1 [1-(1H-Pyrazol-4-ylmethyl)-3-[4-(4-trifluoromethoxy-benzenesulfonyl)-phenyl]-urea] | 100 to 2000 nM |
| O=C(NCc1cn[nH]c1)Nc1ccc(S(=O)(=O)c2ncccn2)cc1 [1-(1H-Pyrazol-4-ylmethyl)-3-[4-(pyrimidine-2-sulfonyl)-phenyl]-urea] | 2000 to 5000 nM |
| O=C(NCc1cn[nH]c1)Nc1ccc(S(=O)(=O)c2nccs2)cc1 [1-(1H-Pyrazol-4-ylmethyl)-3-[4-(thiazole-2-sulfonyl)-phenyl]-urea] | 2000 to 5000 nM and 100 to 2000 nM |
| Cc1ccccc1S(=O)(=O)c1ccc(NC(=O)NCc2cn[nH]c2)cc1 [1-(1H-Pyrazol-4-ylmethyl)-3-[4-(toluene-2-sulfonyl)-phenyl]-urea] | < 100 nM |
| Cc1cccc(S(=O)(=O)c2ccc(NC(=O)NCc3cn[nH]c3)cc2)c1 [1-(1H-Pyrazol-4-ylmethyl)-3-[4-(toluene-3-sulfonyl)-phenyl]-urea] | 100 to 2000 nM |
| O=C(NCc1cn[nH]c1)Nc1ccc(S(=O)(=O)C2CCN(C3CCOCC3)CC2)cc1 [1-(1H-Pyrazol-4-ylmethyl)-3-{4-[1-(tetrahydro-pyran-4-yl)-piperidine-4-sulfonyl]-phenyl}-urea] | 100 to 2000 nM |

Continued, values first:

| EC50 | SMILES |
| --- | --- |
| 100 to 2000 nM | O=C(NCc1cn[nH]c1)Nc1ccc(S(=O)(=O)c2ccccc2-c2cccnc2)cc1 [1-(1H-Pyrazol-4-ylmethyl)-3-[4-(2-pyridin-3-yl-benzenesulfonyl)-phenyl]-urea] |
| 100 to 2000 nM | O=C(NCc1cn[nH]c1)Nc1ccc(S(=O)(=O)c2ccccc2-c2ccncc2)cc1 [1-(1H-Pyrazol-4-ylmethyl)-3-[4-(2-pyridin-4-yl-benzenesulfonyl)-phenyl]-urea] |
| 2000 to 5000 nM | Cc1ccc(-c2csc(Nc3ccc(NC(=O)NCc4cn[nH]c4)cc3)n2)cc1 [1-(1H-Pyrazol-4-ylmethyl)-3-[4-(4-p-tolyl-thiazol-2-ylamino)-phenyl]-urea] |
| 100 to 2000 nM | O=C(NCc1cn[nH]c1)Nc1ccc(S(=O)(=O)c2cccnc2)cc1 [1-(1H-Pyrazol-4-ylmethyl)-3-[4-(pyridine-3-sulfonyl)-phenyl]-urea] |
| 100 to 2000 nM | Cc1ccc(S(=O)(=O)c2ccc(NC(=O)NCc3cn[nH]c3)cc2)cc1 [1-(1H-Pyrazol-4-ylmethyl)-3-[4-(toluene-4-sulfonyl)-phenyl]-urea] |

Same assay, conditions: Table B-5; NAMPT activation, NMN formation

| SMILES | EC50 [nM] |
| --- | --- |
| O=C(NCc1cnco1)Nc1ccc(NS(=O)(=O)Cc2ccccc2Cl)cc1 [1-(2-Chlorophenyl)-N-(4-(3-(oxazol-5-ylmethyl)ureido)phenyl)methanesulfonamide] | < 100 |
| O=C(NCc1cnco1)Nc1ccc(NS(=O)(=O)Cc2ccc(Cl)c(Cl)c2)cc1 [1-(3,4-Dichlorophenyl)-N-(4-(3-(oxazol-5-ylmethyl)ureido)phenyl)methanesulfonamide] | < 100 |
| O=C(NCc1cnco1)Nc1ccc(NS(=O)(=O)Cc2cccc(Cl)c2)cc1 [1-(3-Chlorophenyl)-N-(4-(3-(oxazol-5-ylmethyl)ureido)phenyl)methanesulfonamide] | < 100 |
| O=C(NCc1cnco1)Nc1ccc(S(=O)(=O)c2cn[nH]c2)cc1 [1-(4-((1H-pyrazol-4-yl)sulfonyl)phenyl)-3-(oxazol-5-ylmethyl)urea] | 100 to 2000 |
| O=C(NCc1cnco1)Nc1ccc(S(=O)(=O)c2ccccc2F)cc1 [1-(4-((2-Fluorophenyl)sulfonyl)phenyl)-3-(oxazol-5-ylmethyl)urea] | 100 to 2000 |
| COc1ccccc1S(=O)(=O)c1ccc(NC(=O)NCc2cnco2)cc1 [1-(4-((2-Methoxyphenyl)sulfonyl)phenyl)-3-(oxazol-5-ylmethyl)urea] | 100 to 2000 |
| O=C(NCc1cnco1)Nc1ccc(S(=O)(=O)c2cccc(Cl)c2)cc1 [1-(4-((3-Chlorophenyl)sulfonyl)phenyl)-3-(oxazol-5-ylmethyl)urea] | < 100 |
| O=C(NCc1cnco1)Nc1ccc(S(=O)(=O)c2cccc(F)c2)cc1 [1-(4-((3-Fluorophenyl)sulfonyl)phenyl)-3-(oxazol-5-ylmethyl)urea] | 100 to 2000 |

Next, values leading:

| EC50 [nM] | SMILES |
| --- | --- |
| 5000 to 20000 | Cc1ccc2c(c1)c(-c1ccc(NC(=O)NCc3cnco3)cc1)nn2C [1-(4-(1,5-Dimethyl-1H-indazol-3-yl)phenyl)-3-(oxazol-5-ylmethyl)urea] |
| 2000 to 5000 | Cc1cccc2c(-c3ccc(NC(=O)NCc4cnco4)cc3)nn(C)c12 [1-(4-(1,7-Dimethyl-1H-indazol-3-yl)phenyl)-3-(oxazol-5-ylmethyl)urea] |
| 5000 to 20000 | O=C(NCc1cnco1)Nc1ccc(-c2ncc(Cc3ccccc3)s2)cc1 [1-(4-(5-Benzylthiazol-2-yl)phenyl)-3-(oxazol-5-ylmethyl)urea] |
| 100 to 2000 | Cn1nc(-c2ccc(NC(=O)NCc3cnco3)cc2)c2cc(Cl)ccc21 [1-(4-(5-Chloro-1-methyl-1H-indazol-3-yl)phenyl)-3-(oxazol-5-ylmethyl)urea] |

Same assay, conditions: Table B-6; NAMPT activation, NMN formation

| SMILES | EC50 [nM] |
| --- | --- |
| O=C(NCc1cn[nH]c1)Nc1ccc(S(=O)(=O)C2CCN(C3CCOCC3)CC2)cc1 [1-(1H-Pyrazol-4-ylmethyl)-3-{4-[1-(tetrahydro-pyran-4-yl)-piperidine-4-sulfonyl]-phenyl}-urea] | 100 to 2000 |
| O=C(NCc1ccncc1)Nc1ccc(S(=O)(=O)c2ccccc2-c2ccccc2Cl)cc1 [1-(4-((2′-Chloro-[1,l′-biphenyl]-2-yl)sulfonyl)phenyl)-3-(pyridin-4-ylmethyl)urea] | 100 to 2000 |
| Cc1ccccc1-c1ccccc1S(=O)(=O)c1ccc(NC(=O)NCc2ccncc2)cc1 [1-(4-((2′-Methyl-[1,l′-biphenyl]-2-yl)sulfonyl)phenyl)-3-(pyridin-4-ylmethyl)urea] | 100 to 2000 |

Next, values leading:

| EC50 [nM] | SMILES |
| --- | --- |
| 100 to 2000 | N#Cc1cc(NC(=O)NCc2ccncc2)ccc1S(=O)(=O)c1cc(F)cc(F)c1 [1-(3-Cyano-4-((3,5-difluorophenyl)sulfonyl)phenyl)-3-(pyridin-4-ylmethyl)urea] |
| 100 to 2000 | Cc1cccc2c1c(-c1ccc(NC(=O)NCc3ccncc3)cc1)nn2C [1-(4-(1,4-Dimethyl-1H-indazol-3-yl)phenyl)-3-(pyridin-4-ylmethyl)urea] |
| 100 to 2000 | Cc1ccc2c(c1)c(-c1ccc(NC(=O)NCc3ccncc3)cc1)nn2C [1-(4-(1,5-Dimethyl-1H-indazol-3-yl)phenyl)-3-(pyridin-4-ylmethyl)urea] |
| 100 to 2000 | Cc1cccc2c(-c3ccc(NC(=O)NCc4ccncc4)cc3)nn(C)c12 [1-(4-(1,7-Dimethyl-1H-indazol-3-yl)phenyl)-3-(pyridin-4-ylmethyl)urea] |
| 100 to 2000 | Cn1nc(-c2ccc(NC(=O)NCc3ccncc3)cc2)c2ccncc21 [1-(4-(1-Methyl-1H-pyrazolo[3,4-c]pyridin-3-yl)phenyl)-3-(pyridin-4-ylmethyl)urea] |
| 5000 to 20000 | O=C(NCc1ccncc1)Nc1ccc(-c2ncc(Cc3ccccc3)s2)cc1 [1-(4-(5-Benzylthiazol-2-yl)phenyl)-3-(pyridin-4-ylmethyl)urea] |
| 2000 to 5000 | Cn1nc(-c2ccc(NC(=O)NCc3ccncc3)cc2)c2cc(Cl)ccc21 [1-(4-(5-Chloro-1-methyl-1H-indazol-3-yl)phenyl)-3-(pyridin-4-ylmethyl)urea] |
| 100 to 2000 | O=C(NCc1ccncc1)Nc1ccc(S(=O)(=O)c2cn[nH]c2)cc1 [1-(4-((1H-pyrazol-4-yl)sulfonyl)phenyl)-3-(pyridin-4-ylmethyl)urea] |
| 5000 to 20000 | COc1ccc(-c2ccccc2S(=O)(=O)c2ccc(NC(=O)NCc3ccncc3)cc2)cn1 [1-(4-((2-(6-Methoxypyridin-3-yl)phenyl)sulfonyl)phenyl)-3-(pyridin-4-ylmethyl)urea] |
| 100 to 2000 | O=C(NCc1ccncc1)Nc1ccc(S(=O)(=O)c2ccccc2F)cc1 [1-(4-((2-Fluorophenyl)sulfonyl)phenyl)-3-(pyridin-4-ylmethyl)urea] |
